Assay results as given in US6599754B2, “Biphasic reaction vessel and methods of use” (University of Rochester, priority 2000, dated 2003).

Columns and labels:
[1] = Cellulose membrane permeability and partitioning between methylene chloride and water, analysed by LC/MS; format: physicochemical; details: for transport across cellulose membrane from organic to aqueous layer: LC/MS vial covered with cellulose membrane, methylene chloride / water; for solvent preference from relative LC/MS intensities of the two layers: methylene chloride in LC/MS vial, cellulose membrane, immersed in deionized water for twenty-four hours
Description: One of the key components to this system is the physical separation between the organic chemistry and the biomolecular receptor. As a simple test, starting material was dissolved in methylene chloride at reaction concentration in an LC/MS vial, the vial covered with a cellulose membrane and immersed in glass-distilled, deionized water for twenty-four hours (FIGS. 10A-B). The experiment was analyzed by LC/MS.
Furthermore, enough of the compound is present to detect by LC/MS without having to concentrate the sample.

[2] = tested on: trypsin; experiment: Dynamic library selection experiment against trypsin in the biphasic vessel (LC-MS of extracted ions); details: 121 compound library, trypsin 43 μM and 257 μM vs trypsin free control, 18 hours incubation; not verified by binding or inhibition constant
Description: Selection experiments: 1,4-diacetoxycyclopent-2-ene, methoxyphenylacetic acid, hydrocinnamic acid, isovaleric acid, 4-pentynoic acid, cyclopentane carboxylic acid, cis-pinonic acid, tetrahydro-2-furoic acid, 2 -phenylpropionic acid, 2-cyclopentene-1-acetic acid, (−)-methoxyacetic acid and triethyl phosphite were weighed in 4 mL vials in the open atmosphere. Palladium tetrakistriphenylphosphine was added to the vial containing triethylphosphite under a nitrogen atmosphere inside a glove box. The reagents were diluted with freshly distilled methylene chloride under the nitrogen atmosphere. Stock solutions of 1,4 -diacetoxycyclopent-2-ene (2 M), methoxyphenylacetic acid (1.8 M), hydrocinnamic acid (1.8 M), isovaleric acid (1.8 M), 4-pentynoic acid (1.8 M), cyclopentane carboxylic acid (1.8 M), cis-pinonic acid (1.8 M), tetrahydro-2-furoic acid (1.8 M), 2-phenylpropionic acid (1.8 M), 2-cyclopentene-1-acetic acid (1.8 M), (−)-methoxyacetic acid (1.8 M) and palladium tetrakistriphenylphosphine (90 mM) with triethyl phosphite (360 mM) were prepared. An aliquot (611 μL) was removed from each of the ten acid stock solutions, added to a pear shaped flask, and evaporated to dryness. […]
Organic and aqueous samples were analyzed by electrospray LC-MS in positive ionization mode using an acetonitrile: water 1% trifluoroacetic acid gradient elution (30% CH3CN—90%). […]

SMILES	transport across cellulose membrane from organic to aqueous layer [1]	solvent preference from relative LC/MS intensities of the two layers [1]	correlation of amount of compound (ion intensity) with presence of trypsin [2]
CC(=O)OC1C=CC(OC(C)=O)C1 (stereo not drawn) [1,4-diacetoxycyclopent-2-ene]	sufficient ability to undergo membrane transport	organic preference	
CC(=O)OC1C=CC(OC(=O)CC2C=CCC2)C1 (stereo not drawn) [1-acetoxy-4-(2-cyclopentene-1-acetoxy)cyclopent-2-ene]			strong correlation
COC(C(=O)OC1C=CC(OC(C)=O)C1)c1ccccc1 (stereo not drawn) [1-acetoxy-4-(methoxyphenylacetoxy)cyclopent-2-ene]	present at thirteen minutes in the aqueous layer		
COC(C(=O)O)c1ccccc1 (stereo not drawn) [methoxyphenylacetic acid]	sufficient ability to undergo membrane transport	aqueous preference	
